Structures can show the parent of a compound that is named as a salt. Where two headings read alike, the source gives them in different places.
Assays:
ovariectomized rats [1] = test system: ovariectomized rats; parameters: species or system Sprague Dawley rats; conditions: rat, in vivo; for Uterine EPO (V. max): po
Text: (§1) Seventy-five day old female Sprague Dawley rats (weight range of 200 to 225g) were obtained from Charles River Laboratories (Portage, MI). The animals were either bilaterally ovariectomized (OVX) or exposed to a Sham surgical procedure at Charles River Laboratories, and then shipped after one week. Upon arrival, they were housed in metal hanging cages in groups of 3 or 4 per cage and had ad libitum access to food (calcium content approximately 0.5%) and water for one week. Room temperature was maintained at 22.2° ± 1.7° C with a minimum relative humidity of 40%. The photoperiod in the room was 12 hours light and 12 hours dark.
(§2) After a one week acclimation period (therefore, two weeks post-OVX) daily dosing with test compound was initiated. 17a-ethynyl estradiol or the test compound were given orally, unless otherwise stated, as a suspension in 1% carboxymethylcellulose or dissolved in 20% cyclodextrin. Animals were dosed daily for 4 days. Following the dosing regimen, animals were weighed and anesthetized with a ketamine: Xylazine (2:1, V:V) mixture and a blood sample was collected by cardiac puncture. The animals were then sacrificed by asphyxiation with CO2, the uterus was removed through a midline incision, and a wet uterine weight was determined.
Uteri were kept at 4° C until time of enzymatic analysis. The uteri were then homogenized in 50 volumes of 50 mM Tris buffer (pH - 8.0) containing 0.005% Triton X-100. Upon addition of 0.01% hydrogen peroxide and 10 mM O-phenylenediamine (final concentrations) in Tris buffer, increase in absorbance was monitored for one minute at 450 nm. The presence of eosonophils in the uterus is an indication of estrogenic activity of a compound. The maximal velocity of a 15 second interval was determined over the initial, linear portion of the reaction curve.

ovariectomized rats [2] = test: Serum cholesterol analysis (OVX rat, 4-day dosing); type: in vivo, Sprague Dawley rats
Text: as §1, §2
Blood samples were allowed to clot at room temperature for 2 hours, and serum was obtained following centrifugation for 10 minutes at 3000 rpm. Serum cholesterol was determined using a Boehringer Mannheim Diagnostics high performance cholesterol assay. Briefly the cholesterol was oxidized to cholest-4-en-3-one and hydrogen peroxide. The hydrogen peroxide was then reacted with phenol and 4-aminophenazone in the presence of peroxidase to produce a p-quinone imine dye, which was read spectrophotemetrically at 500 nm. Cholesterol concentration was then calculated against a standard curve. The entire assay was automated using a Biomek Automated Workstation.

[3] = test system: ovariectomized test animals; test: Osteoporosis Test Procedure (OVX rat, 35-day dosing, distal femur metaphysis X-ray image analysis); type: in vivo, Sprague Dawley rats; conditions: OVX rats, daily for 35 days; for Distal Femur Metaphysis (X-ray Image Analysis-Gray Score): mean ± SEM
Text: as §1
Following the General Preparation Procedure, infra, the rats were treated daily for 35 days (6 rats per treatment group) and sacrificed by carbon dioxide asphyxiation on the 36th day. The 35 day time period was sufficient to allow maximal reduction in bone density, measured as described herein. At the time of sacrifice, the uteri were removed, dissected free of extraneous tissue, and the fluid contents were expelled before determination of wet weight in order to confirm estrogen deficiency associated with complete ovariectomy. […] The uteri were then placed in 10% neutral buffered formalin to allow for subsequent histological analysis.
The right femurs were excised and digitilized x-rays generated and analyzed by an image analysis program (NIH image) at the distal metaphysis. The proximal aspect of the tibiae from these animals were also scanned by quantitative computed tomography.
In accordance with the above procedures, compounds of the present invention and ethynyl estradiol (EE2) in 20% hydroxypropyl b-cyclodextrin were orally administered to test animals. Distal femur metaphysis data presented in Tables 2 and 3 below are the results of formula I compound treatments compared to intact and ovariectomized test animals. Results are reported as the mean ± the standard error of the mean.

[4] = Rattus norvegicus, po, 96 h, daily for 4 days, read-out: Serum Cholesterol (% decrease vs. OVX)
[5] = Table 3, oral, dose 0.1 mg/kg, OVX control 6.2 ± 1.4, Sham 31.1 ± 6.3

## O=C(Oc1ccc(-c2sc3cc(OC(=O)c4ccccc4)ccc3c2Oc2ccc(OCCN3CCCCC3)cc2)cc1)c1ccccc1 [Example 43, [6-Benzoyloxy-3-[4-[2-(1-piperidinyl)-ethoxy]phenoxy]-2-(4-benzoyloxyphenyl)]benzo[b]thiophene hydrochloride]
Ovariectomized rats [1]; 0.01 mg/kg
  Uterine EPO (V. max): 3.3
Ovariectomized rats [1]; 0.1 mg/kg
  Uterine EPO (V. max): 4.8
Ovariectomized rats [1]; 1 mg/kg
  Uterine EPO (V. max): 6.0
Ovariectomized rats [2]; [4]
  inhibition in vivo at 0.01 mg/kg: 9.2%
  inhibition in vivo at 0.1 mg/kg: 43.8%
  inhibition in vivo at 1 mg/kg: 39.4%

## CCS(=O)(=O)Oc1ccc(-c2sc3cc(OS(=O)(=O)CC)ccc3c2Oc2ccc(OCCN3CCCCC3)cc2)cc1 [Example 44, [6-Ethylsulfonyloxy-3-[4-[2-(1-piperidinyl)ethoxy]-phenoxy]-2-(4-ethylsulfonyloxyphenyl)] benzo[b]thiophene hydrochloride]
Ovariectomized rats [1]; 0.01 mg/kg
  Uterine EPO (V. max): 3.6
Ovariectomized rats [1]; 0.1 mg/kg
  Uterine EPO (V. max): 88.5
Ovariectomized rats [1]; 1 mg/kg
  Uterine EPO (V. max): 94.5
Ovariectomized rats [2]; [4]
  inhibition in vivo at 0.01 mg/kg: 12.6%
  inhibition in vivo at 0.1 mg/kg: 43.8%
  inhibition in vivo at 1 mg/kg: 67.4%

## c1ccc(-c2sc3ccccc3c2Oc2ccc(OCCN3CCCCC3)cc2)cc1 [Example 7, [3-[4-[2-(1-piperidinyl)ethoxy]phenoxy]-2-(phenyl)]benzo [b]thiophene hydrochloride]
Ovariectomized rats [1]; 0.1 mg/kg
  Uterine EPO (V. max): 4.8
Ovariectomized rats [1]; 1 mg/kg
  Uterine EPO (V. max): 4.5
Ovariectomized rats [1]; 5 mg/kg
  Uterine EPO (V. max): 4.8
Ovariectomized rats [2]; [4]
  inhibition in vivo at 0.1 mg/kg: 56.2%
  inhibition in vivo at 1 mg/kg: 42.6%
Ovariectomized rats [2]; Rattus norvegicus, po, 96 h, daily for 4 days, dose 5.0 mg/kg, read-out: Serum Cholesterol (% decrease vs. OVX)
  inhibition in vivo at 5 mg/kg: 29.5%

## Oc1ccc(-c2sc3cc(O)ccc3c2Oc2ccc(OCCN3CCOCC3)cc2)cc1 [Example 24, [6-Hydroxy-3-[4-[2-(morpholino)ethoxy]phenoxy]-2-(4-hydroxyphenyl)]benzo[b]thiophene hydrochloride]
Ovariectomized rats [1]; 0.01 mg/kg
  Uterine EPO (V. max): 3.6
Ovariectomized rats [1]; 0.1 mg/kg
  Uterine EPO (V. max): 0.9
Ovariectomized rats [1]; 1 mg/kg
  Uterine EPO (V. max): 29.4
Ovariectomized rats [2]; [4]
  inhibition in vivo at 0.01 mg/kg: 23.7%
  inhibition in vivo at 0.1 mg/kg: 46.4%
  inhibition in vivo at 1 mg/kg: 79.3%
[3]; [5]
  Distal Femur Metaphysis (X-ray Image Analysis-Gray Score): 18.3 ± 2.6∗
[3]; Table 3, oral, dose 1.0 mg/kg, OVX control 6.2 ± 1.4, Sham 31.1 ± 6.3
  Distal Femur Metaphysis (X-ray Image Analysis-Gray Score): 19.6 ± 2.3∗
[3]; Table 3, oral, dose 3.0 mg/kg, OVX control 6.2 ± 1.4, Sham 31.1 ± 6.3
  Distal Femur Metaphysis (X-ray Image Analysis-Gray Score): 17.1 ± 5.5

## Oc1ccc(-c2sc3cc(O)ccc3c2Oc2ccc(OCCCN3CCCCC3)cc2)cc1 [Example 27, [6-Hydroxy-3-[4-[3-(piperidino)propoxy]phenoxy]-2-(4-hydroxyphenyl)]benzo[b]thiophene hydrochloride]
Ovariectomized rats [1]; 0.01 mg/kg
  Uterine EPO (V. max): 3.3
Ovariectomized rats [1]; 0.1 mg/kg
  Uterine EPO (V. max): 4.8
Ovariectomized rats [1]; 1 mg/kg
  Uterine EPO (V. max): 52.5
Ovariectomized rats [2]; [4]
  inhibition in vivo at 0.01 mg/kg: 12.2%
  inhibition in vivo at 0.1 mg/kg: 50.8%
  inhibition in vivo at 1 mg/kg: 76.5%

## CCN(CC)CCOc1ccc(Oc2c(-c3ccc(O)cc3)sc3ccccc23)cc1 [Example 5, [3-[4-[2-(1-N,N-diethylamino)ethoxy]phenoxy]-2-(4-bydroxyphenyl)]benzo[b]thiophene]
Ovariectomized rats [1]; 0.1 mg/kg
  Uterine EPO (V. max): 7.2
Ovariectomized rats [1]; 1 mg/kg
  Uterine EPO (V. max): 54.6
Ovariectomized rats [1]; 10 mg/kg
  Uterine EPO (V. max): 59.4
Ovariectomized rats [2]; [4]
  inhibition in vivo at 0.1 mg/kg: 67.2%
  inhibition in vivo at 1 mg/kg: 67.7%
  inhibition in vivo at 10 mg/kg: 60.2%

## CC(C)N(CCOc1ccc(Oc2c(-c3ccc(O)cc3)sc3cc(O)ccc23)cc1)C(C)C [Example 26, [6-Hydroxy-3-[4-[2-(1-N,N-diisopropylamino)-ethoxy]phenoxy]-2-(4-hydroxyphenyl)]benzo[b]thiophene hydrochloride]
Ovariectomized rats [1]; 0.01 mg/kg
  Uterine EPO (V. max): 4.8
Ovariectomized rats [1]; 0.1 mg/kg
  Uterine EPO (V. max): 29.1
Ovariectomized rats [1]; 1 mg/kg
  Uterine EPO (V. max): 175.1
Ovariectomized rats [2]; [4]
  inhibition in vivo at 0.01 mg/kg: 29%
  inhibition in vivo at 0.1 mg/kg: 45.2%
  inhibition in vivo at 1 mg/kg: 62.7%

## Oc1ccc(-c2sc3cc(O)ccc3c2Oc2ccc(OCCN3CCCCC3)cc2)cc1 [Example 20, [6-hydroxy-3-[4-[2-(1-piperidinyl)ethoxy]-phenoxy]-2-(4-hydroxyphenyl)]benzo [b]thiophene hydrochloride]
Ovariectomized rats [1]; 0.01 mg/kg
  Uterine EPO (V. max): 0.9
Ovariectomized rats [1]; 0.05 mg/kg
  Uterine EPO (V. max): 3.0
Ovariectomized rats [1]; 0.1 mg/kg
  Uterine EPO (V. max): 3.0
Ovariectomized rats [2]; Rattus norvegicus, po, 96 h, daily for 4 days, dose 0.05 mg/kg, read-out: Serum Cholesterol (% decrease vs. OVX)
  inhibition in vivo at 0.05 mg/kg: 35.9%

## C#C[C@]1(O)CC[C@H]2[C@@H]3CCc4cc(O)ccc4[C@H]3CC[C@@]21C [EE2, 17a-ethynyl estradiol, reference compound]
Ovariectomized rats [1]
  eosinophil infiltration into the uterus (in words): substantial, expected increase in eosinophil infiltration
Ovariectomized rats [1]; 0.1 mg/kg
  Uterine EPO (V. max): 308.1
Ovariectomized rats [2]; [4]
  inhibition in vivo at 0.1 mg/kg: 94.8%
Ovariectomized rats [2]; oral, 4 days, EE2 at 0.1 mg/kg/day
  serum cholesterol compared to the ovariectomized control animals (in words): caused a decrease in serum cholesterol
[3]; oral
  bone loss / femur density after ovariectomy (in words): prevented this loss
[3]; Table 2, oral in 20% hydroxypropyl b-cyclodextrin, dose 0.1 mg/kg, OVX control 8.1 ± 1.8, Sham 27.2 ± 6.0
  Distal Femur Metaphysis (X-ray Image Analysis-Gray Score): 11.5 ± 2.9∗
[3]; [5]
  Distal Femur Metaphysis (X-ray Image Analysis-Gray Score): 17.8 ± 3.5

## Oc1ccc(-c2sc3ccccc3c2Oc2ccc(OCCN3CCCCCC3)cc2)cc1 [Example 4, [3-[4-[2-(1-hexamethyleneimino)ethoxy]phenoxy]-2-(4-hydroxypbenyl)]benzo[b]thiophene]
Ovariectomized rats [1]; 0.1 mg/kg
  Uterine EPO (V. max): 3.9
Ovariectomized rats [1]; 1 mg/kg
  Uterine EPO (V. max): 4.8
Ovariectomized rats [1]; 10 mg/kg
  Uterine EPO (V. max): 3.0
Ovariectomized rats [2]; [4]
  inhibition in vivo at 0.1 mg/kg: 53.7%
  inhibition in vivo at 1 mg/kg: 62.1%
  inhibition in vivo at 10 mg/kg: 65.3%

## CCN(CC)CCCOc1ccc(Oc2c(-c3ccc(O)cc3)sc3cc(O)ccc23)cc1 [Example 25, [6-Hydroxy-3-[4-[3-(1-N,N-diethylamino)propoxy]phenoxy]-2-(4-hydroxyphenyl)]benzo [b]thiophene hydrochloride]
Ovariectomized rats [1]; 0.01 mg/kg
  Uterine EPO (V. max): 3.0
Ovariectomized rats [1]; 0.1 mg/kg
  Uterine EPO (V. max): 3.3
Ovariectomized rats [1]; 1 mg/kg
  Uterine EPO (V. max): 36.0
Ovariectomized rats [2]; [4]
  inhibition in vivo at 0.01 mg/kg: 13.1%
  inhibition in vivo at 0.1 mg/kg: 67.6%
  inhibition in vivo at 1 mg/kg: 73.9%
